From patent publication US20260240877A1, “INOSITOL PHOSPHATE COMPOUNDS FOR USE IN INCREASING TISSULAR PERFUSION” (SANIFIT THERAPEUTICS, S.A., priority 2019, published 2026)

Tests used:
[1] = system: Sprague Dawley (SD) rats with vitamin D3-induced limb ischemia; experiment: Limb blood perfusion by laser doppler perfusion imaging, treatment after inception of limb ischemia; format: in vivo, rat; conditions: Example 3; 40 mg/kg daily D5 to D13
Experimental: Position limb blood perfusion and ischemia status (i.e., blood perfusion including, perfusion unit, perfusion difference and perfusion ratio) is evaluated by laser doppler perfusion imaging using a PeriCam PSI NR imager (Perimed AB, Järfä11a, SE). Subjects are anesthetized using 3% isoflurane delivered in 100% oxygen at a flow rate at 1 L/min before measuring. The perfusion difference and perfusion ratio are calculated by comparing the baseline and any indicated interim or final readings for each group. […] Limb ischemia was induced in the subjects of groups 2-5 by subcutaneous administration of 120,000 IU/kg vitamin D3 (cholecalciferol, Duphafral D3 1000; Zoetis Inc., Parsippany, NJ, US) in physiological saline solution (2 mL/kg) every day during D1 to D3. The group 1 subjects were administered physiological saline solution (2 mL/kg) subcutaneously every day from D1 to D3 with no vitamin D3. Subjects in groups 3a placebo were administered 2 mL/kg of physiological saline solution daily from D5 to D13 via subcutaneous route. Subjects in group 3b placebo were administered orally 5 mL/kg of a 5% CMC sodium salt in water solution daily from D5 to D13. […] The perfusion difference and perfusion ratio were calculated by comparing the baseline and either D5 and D13 readings for each group.

[2] = in vivo; cited from earlier work
[3] = system: Sprague Dawley (SD) rats with vitamin D3-induced limb ischemia; experiment: Walking ability by treadmill running test, treatment after inception of limb ischemia; format: in vivo, rat; conditions: Example 3; 40 mg/kg/day, treatment started 5 days after ischemia induction, D11
Experimental: (§1) Quantification of walking ability (maximal waling time (MWT) and maximal walking distance (MWD)) are measured by a forced incremental treadmill running test. A two-lane rodent treadmill (LE8709TS; PanLab/Harvard Apparatus, Holliston, MA, US) is employed. The treadmill is maintained at a 15% inclination running at a speed of 15 m/min (25 cm/sec) during the first 5 min, then at 33 cm/see during the following 5 min, and finally, at a speed of 40 cm/see for a maximum of 30 additional minutes.
Maximal walking time (MWT) and maximal walking distance (MWD) were assessed in all groups at DO and in groups 1, 3a, 3b, 4, and 5 at D6 and D11 by the treadmill running test (8 to 12 animals per group and time point). Subjects were acclimatized to the treadmill for two days before conducting the test. On the first day, subjects were exercised for 5 to 10 minutes with the treadmill speed ranging progressively from 15 m/min to 24 m/min. […]
Limb function (MWT and MWD) was assessed in groups 1, 3a, 3b, and 4 using the treadmill running test 15 min after the corresponding daily administration. Limb function in groups 5 was assessed from 3 to 4 hours after treatment.
(§2) The subjects were kept running for 40 minutes or until exhausted (i.e., they remain on the shock grid for five continuous seconds). MWD and MWT was then calculated for each animal.

[4] = system: Sprague Dawley (SD) rats with vitamin D3-induced limb ischemia; experiment: Walking ability (MWD, MWT) by treadmill running test, prevention of vitamin D3-induced limb ischemia; format: in vivo, rat
Experimental: as §1
Subjects are exercised in the treadmill for acclimatization according to a set protocol prior to testing.
Subjects are kept running for up to 40 min or until exhausted (i.e., they remain on the shock grid for five continuous seconds) during the test. MWD and MWT are then calculated for each animal.
Maximal waling time (MWT) and maximal walking distance (MWD) were assessed in groups 1~4 by the treadmill running test (8 to10 animals per group and time point) in DO, D5, D10, and D17.
Subjects were acclimatized to the treadmill for two days before conducting the test. On the first day, subjects were exercised for 5 to 10 minutes with the treadmill speed ranging progressively from 15 m/min to 24 m/min. On the second day, the subjects were exercised initially at a speed of 15 m/min for the 5 minutes. Then, they were exercised at 19.8 m/min (33 cm/sec) for 5 additional minutes. Finally, the subjects were exercised at 24 m/min (40 cm/sec) for a maximum 30 additional minutes. Preoperative walking time and distance recordings were obtained.
Limb function (MWT and MWD) was assessed in groups 1, 2, and 3 using the treadmill running test 15 min after the corresponding daily administration. Limb function in groups 4 was assessed from 3 to 4 hours after treatment.
as §2
Maximal walking time (MWT) and maximal walking distance (MWD) were assessed in groups 1-8 by the treadmill running test (8 to12 animals per group and time point) in DO, D5 and D10.
Limb function (MWT and MWD) was assessed in groups 1, 2, 3, 4, 5, 6 and 7 using the treadmill running test 15 min after the corresponding daily administration. Limb function in group 8 was assessed from 3 to 4 hours after treatment.

[5] = system: Sprague Dawley (SD) rats with vitamin D3-induced limb ischemia; experiment: Limb blood perfusion by laser doppler perfusion imaging, prevention of vitamin D3-induced limb ischemia; format: in vivo, rat
Experimental: Position limb blood perfusion and ischemia status (i.e., blood perfusion including, perfusion unit, perfusion difference and perfusion ratio) is evaluated by laser doppler perfusion imaging using a PeriCam PSI NR imager (Perimed AB, Järfä11a, SE). Subjects are anesthetized using 3% isoflurane delivered in 100% oxygen at a flow rate at 1 L/min before measuring. The perfusion difference and perfusion ratio are calculated by comparing the baseline and any indicated interim or final readings for each group. […]
Limb ischemia status was evaluated at days DO (baseline), D6 and D12 in all rats by laser doppler perfusion imaging. The perfusion difference and perfusion ratio were calculated by comparing the DO baseline and either the D6 and D12 readings for each group. […]
Limb ischemia status was evaluated during treatment and after treatment was interrupted (i.e., DO, D6, D12, D18) in all rats by laser doppler perfusion imaging. The perfusion difference and perfusion ratio were calculated by comparing the baseline and either of the D6, D12, and D18 readings for each group. […]
Limb ischemia status was evaluated during the treatment period (i.e., DO, D6 and D12) by laser doppler perfusion imaging in all rats. The perfusion difference and perfusion ratio were calculated by comparing the baseline and either of the D6 and D12 readings for each group.

[6] = system: adenine-induced uremic Sprague Dawley (SD) rats; experiment: Limb blood perfusion by laser doppler perfusion imaging, adenine-induced uremic rat model; format: in vivo; conditions: Example 6; SNF472 30, 45 mg/kg s.c. or 400 mg/4 weeks Alzet pump; cilostazol 45 mg/kg oral; D1 to D21
Experimental: Position limb blood perfusion and ischemia status (i.e., blood perfusion including, perfusion unit, perfusion difference and perfusion ratio) is evaluated by laser doppler perfusion imaging using a PeriCam PSI NR imager (Perimed AB, Järfä11a, SE). Subjects are anesthetized using 3% isoflurane delivered in 100% oxygen at a flow rate at 1 L/min before measuring. The perfusion difference and perfusion ratio are calculated by comparing the baseline and any indicated interim or final readings for each group.
Uremia and limb ischemia were induced in groups 2-6 by a daily dose of adenine (500 mg/kg, suspended in 1% carboxymethyl cellulose, administered orally) for the first 10 days, and then with a dose of α-calcidol (100 ng/kg in olive oil, administered orally) three times per week from D11 to D19, to accelerate and homogenize the development of cardiovascular calcification and ischemia.
Animals in group 6 were administered orally 45 mg/kg cilostazol (C20H27N5O2, free base 369.46 g/mol; lot no. LRAB9590, Sigma-Aldrich Corp., St. Louis, MO, US) in a 5% CMC sodium salt in water solution (5 mL/kg) daily from D1 to D21.
Limb ischemia status was evaluated during treatment (i.e., DO, D10 and D17 and D21) in all rats by laser doppler perfusion imaging. The perfusion difference and perfusion ratio were calculated by comparing the baseline and of the D10, D17 and D21 readings for each group.

[7] = system: Sprague Dawley (SD) rats treated with vitamin D3; experiment: Tissue calcification (calcium content by ICP-OES), VitD rat model, prevention; format: in vivo
Text: Subjects are anesthetized by isoflurane inhalation. Blood is obtained by exsanguination through cardiac puncture. The subjects are then sacrificed and their tissues (e.g., right and left femoral arteries, aorta) are collected. The blood and tissues are processed and analyzed for determining their calcium contents. Calcium content in tissue sample is quantified via inductively coupled plasma optical emission spectrometry (ICP-OES) using an Optima 7300 DV ICP-OES System spectrometer (PerkinElmer, Inc., Waltham, MA, US) according to the manufacturer's instructions. […] The subjects from groups 1, 2, 3 and 5 were sacrificed after exsanguination. Then, their necropsies were performed, and their aortas were collected. The tissues were lyophilized for 24 h and weighed. The lyophilized tissues were then digested using a 1:1 HNO3: HClO4 mixture in a dry bath incubator for 2-4 h at 180° C. The digested tissues were subsequently diluted using ultra-pure Milli-Q water (MilliporeSigma (Merck KGaA), Burlington, MA, US) to a final volume of 10 mL. The calcium content in the aorta sample was quantified via ICP-OES. Subjects were anesthetized and their blood was obtained in D24. The subjects were sacrificed after exsanguination. Then, their necropsies were performed, and their aortas were collected. The tissues were lyophilized for 24 h and weighed. The lyophilized tissues were then digested using a 1:1 HNO3: HClO4 mixture in a dry bath incubator for 2-4 h at 180° C. The digested tissues were subsequently diluted using ultra-pure Milli-Q water (MilliporeSigma (Merck KGaA), Burlington, MA, US) to a final volume of 10 mL. The calcium content in the tissue samples was quantified via ICP-OES. Subjects were anesthetized and their blood was obtained in D12. The subjects were sacrificed after exsanguination. Then, their necropsies were performed, and their heart and aorta arteries were collected. The tissues were lyophilized for 24 h and weighed. […] The calcium content in the tissue samples was quantified via ICP-OES.

[8] = system: adenine-induced uremic Sprague Dawley (SD) rats; experiment: Heart and aorta calcification (calcium content by ICP-OES), adenine-induced uremic rat model; format: in vivo; conditions: Example 6; SNF472 s.c. dosing or Alzet pump; cilostazol 45 mg/kg oral; D21
Experimental: Uremia and limb ischemia were induced in groups 2-6 by a daily dose of adenine (500 mg/kg, suspended in 1% carboxymethyl cellulose, administered orally) for the first 10 days, and then with a dose of α-calcidol (100 ng/kg in olive oil, administered orally) three times per week from D11 to D19, to accelerate and homogenize the development of cardiovascular calcification and ischemia. Subjects were anesthetized and their blood was obtained in D21. The subjects were sacrificed after exsanguination. Then, their necropsies were performed, and their heart and aorta arteries were collected. The tissues were lyophilized for 24 h and weighed. The lyophilized tissues were then digested using a 1:1 HNO3: HClO4 mixture in a dry bath incubator for 2-4 h at 180° C. The digested tissues were subsequently diluted using ultra-pure Milli-Q water (MilliporeSigma (Merck KGaA), Burlington, MA, US) to a final volume of 10 mL. The calcium content in the tissue samples was quantified via ICP-OES.

[9] = system: people with symptomatic PAD; conditions: recent studies in PAD patients; cited from earlier work

SMILES | limbs blood perfusion in D13 compared to D5 before treatment [1] | side effects [2] | improvement of walking ability (MWD) compared to vehicle [3] | improvement of Maximal Walking Distance (MWD) compared to vehicle ([4]; Example 2, 20 mg/kg daily, D10) | improvement of Maximal Walking Time (MWT) compared to vehicle ([4]; Example 2, 20 mg/kg daily, D10) | effect on walking ability after interrupting treatment ([4]; Example 2, D17, 5 days after interrupting treatment) | walking ability compared to vehicle ([4]; Example 5, SNF472 1-45 mg/kg s.c., cilostazol 45 mg/kg oral, daily D1 to D12) | rat limb ischemia (blood perfusion) ([5]; Example 2, 20 mg/kg daily D1 to D12 (SNF472 s.c., cilostazol oral)) | rat limb ischemia (blood perfusion) ([5]; Example 5, SNF472 1, 7.5, 15, 30, 45 mg/kg s.c., cilostazol 45 mg/kg oral, daily D1 to D12) | rat limb ischemia in uremic rats (blood perfusion) [6] | inhibition of aorta calcification compared to placebo ([7]; Example 1, 20 mg/kg daily, D12) | inhibition of aorta calcification compared to placebo ([7]; Example 2, 20 mg/kg daily D1 to D12, D24 (12 days after interruption of treatment)) | heart and aorta arteries calcification ([7]; Example 5, SNF472 1-45 mg/kg s.c., cilostazol 45 mg/kg oral, D12) | heart and aorta arteries calcification in uremic rats [8] | intermittent claudication symptoms or maximal walking distance versus placebo [9]
O=C1CCc2cc(OCCCCc3nnnn3C3CCCCC3)ccc2N1 [Cilostazol, 6-[4-(1-cyclohexyl-1H-tetrazol-5yl)butoxy]-3,4-dihydro-2 (1H)-quinolinone] | No improvement or ischemia rescue | headache, diarrhea, palpitations, and lightheadedness | not effective | +54% | +46% | lost its beneficial effects | improved walking ability | not effective | not effective | not effective | not active against calcification | not active against calcification | not active against calcification | not active against calcification | 
CC(=O)CCCCn1c(=O)c2c(ncn2C)n(C)c1=O [pentoxifylline] |  |  |  |  |  |  |  |  |  |  |  |  |  |  | not significantly improved
